Source: article PMC6749524, “Identification of New Antifungal Agents Targeting Chitin Synthesis by a Chemical-Genetic Method” (Molecules, 2019)

Tests used:
[1] = test system: chs3∆ (chs3::KanMX in BY4741); test: MIC in compound library screening assay, chs3∆ yeast; format: cell-based, S. cerevisiae
Method: (§1) The compound library is a combination of synthetic compounds from Enamine (Kyiv, Ukraine) and Life Chemicals Inc. (Burlington, ON, Canada) and natural products from the Institute of Medicinal Biotechnology. We used WT, chs3∆, and fks1∆ yeast strains to screen new antifungal agents. The screening assays were performed in 96-well plates in a final volume of 200 μL. Fresh yeast cells (OD600 = 0.8) were diluted to 10^5 CFU/mL in YPD medium. We added 198 μL of diluted culture and 2 μL of compounds into each well, and the final concentration of compounds was 100 μg/mL with 1% DMSO. The yeast cells were incubated at 30 °C for 24 hours to assess the growth. For the compounds that inhibited the growth of all three yeast strains, they were serially diluted to determine the minimal inhibit concentration (MIC) with the same method. MIC endpoints were defined as the lowest concentration of drugs that cause a 90% decrease in growth compared to the drug-free control (MIC90).

budding yeast = test: MIC of CFW in the presence of compounds, checkerboard assay; format: cell-based, S. cerevisiae
Method: Fresh cell cultures of WT S. cerevisiae and C. albicans ATCC10231 (OD600 = 0.8) were diluted to 10^4 CFU/mL in YPD medium. The in vitro synergistic and antagonistic effects of compounds were determined using checkerboard assay. MIC endpoints were defined as the lowest concentration of drugs, causing 80% decrease in viability compared to the drug-free control (MIC80). The calculation and interpretation of the fractional inhibitory concentration index (FICI) were carried out by referring to the document standards. FICI = (MIC of drug A in combination) / (MIC of drug A alone) + (MIC of drug B in combination) / (MIC of drug B alone). FIC ≤0.5 was considered as a synergistic effect, and >2 was considered as antagonism.

[2] = test system: fks1∆ (fks1::KanMX in BY4741); test: MIC in compound library screening assay, fks1∆ yeast; format: cell-based, S. cerevisiae
Method: as §1

Mycobacterium smegmatis = test: Growth inhibition of bacteria; format: cell-based; settings: at 100 μg/mL
Chs1 = test: Chitin synthase activity assay (WGA-coated plate); format: biochemical, S. cerevisiae; settings: membrane protein from WT yeast
Method: (§2) The inhibitory effect of compounds IMB-D10 and IMB-F4, on the activity of chitin synthases 1, 2, and 3, was measured by the procedure, described previously. In brief, WT yeast cells were grown in YPD medium to OD600 1–2. The cells were sedimented at 1500 g for 15 min at 4 °C and washed once with water. Then, the cells were resuspended in cold 100 mM Tris-HCl (pH 7.5) buffer containing protease inhibitors, and broken by 10 cycles of vortexing with acid-washed glass beads (1 min each). The broken cells were centrifuged for 15 min at 1500g to eliminate cell wall and debris. One volume of supernatant was placed on 2 volumes of 10% w/w sucrose in 100 mM Tris-HCl pH 7.5 and centrifuged at 55,000 g for 2 hours. The pellet was resuspended in 50 mM Tris-HCl pH 7 and used as membrane protein of Chs3. For Chs1 and Chs2, the membrane protein was pretreated with 80 μg/mL trypsin for 30 min at 30 °C.
(§3) To assess the enzyme activity of Chs1, the assay mixture contained 15 μg membrane protein, 5 mM MgCl2, 32 mM Tris-maleate (pH6.5), 0.2% digitonin, 40 mM N-acetyl-glucosamine (GlcNAc), and 4 mM UDP-GlcNAc. For Chs2, the mixture contained 15 μg pretreated membrane protein, 1.6 mM CoCl2, 32 mM Tris-HCl (pH 8), 40 mM GlcNAc, and 4 mM UDP-GlcNAc. For Chs3, the mixture contained pretreated membrane protein 15 μg, 1.6 mM CoCl2, 5 mM NiCl2, 32 mM Tris-HCl (pH 8), 40 mM GlcNAc, and 4 mM UDP-GlcNAc. Different concentrations of IMB-D10 and IMB-F4 were added to the mixture, and the reaction without UDP-GlcNAc was used to measure background absorbance. The 96-well plate coated with 50 μg/mL wheat germ agglutinin (WGA) was washed three times with water, and the reaction mixture was added into the wells and incubated at 30 °C for 60 min. The reaction was stopped by 50 mM EDTA, and the plate was emptied and washed with a large volume of water, followed by the addition of 200 μL 0.5 μg/mL WGA-HRP and incubation for 5 min at room temperature. The plate was washed 5 times with running distilled water. Then, the Tetramethylbenzidine (TMB) reagent was added, and the optical density at 600 nm (OD600) was immediately detected with Multilabel Reader (Envision, PE, Pontyclun, UK). All reactions were performed in triplicate.

Chs3 = target: T1, Chs3 (Saccharomyces cerevisiae, UniProt P29465); test: Chitin synthase activity assay (WGA-coated plate); format: biochemical, S. cerevisiae
T1 construct: The pellet was resuspended in 50 mM Tris-HCl pH 7 and used as membrane protein of Chs3; endogenous in cells; host or cells: S. cerevisiae WT BY4741, crude membrane fraction
T1 sequence (P29465 whole entry): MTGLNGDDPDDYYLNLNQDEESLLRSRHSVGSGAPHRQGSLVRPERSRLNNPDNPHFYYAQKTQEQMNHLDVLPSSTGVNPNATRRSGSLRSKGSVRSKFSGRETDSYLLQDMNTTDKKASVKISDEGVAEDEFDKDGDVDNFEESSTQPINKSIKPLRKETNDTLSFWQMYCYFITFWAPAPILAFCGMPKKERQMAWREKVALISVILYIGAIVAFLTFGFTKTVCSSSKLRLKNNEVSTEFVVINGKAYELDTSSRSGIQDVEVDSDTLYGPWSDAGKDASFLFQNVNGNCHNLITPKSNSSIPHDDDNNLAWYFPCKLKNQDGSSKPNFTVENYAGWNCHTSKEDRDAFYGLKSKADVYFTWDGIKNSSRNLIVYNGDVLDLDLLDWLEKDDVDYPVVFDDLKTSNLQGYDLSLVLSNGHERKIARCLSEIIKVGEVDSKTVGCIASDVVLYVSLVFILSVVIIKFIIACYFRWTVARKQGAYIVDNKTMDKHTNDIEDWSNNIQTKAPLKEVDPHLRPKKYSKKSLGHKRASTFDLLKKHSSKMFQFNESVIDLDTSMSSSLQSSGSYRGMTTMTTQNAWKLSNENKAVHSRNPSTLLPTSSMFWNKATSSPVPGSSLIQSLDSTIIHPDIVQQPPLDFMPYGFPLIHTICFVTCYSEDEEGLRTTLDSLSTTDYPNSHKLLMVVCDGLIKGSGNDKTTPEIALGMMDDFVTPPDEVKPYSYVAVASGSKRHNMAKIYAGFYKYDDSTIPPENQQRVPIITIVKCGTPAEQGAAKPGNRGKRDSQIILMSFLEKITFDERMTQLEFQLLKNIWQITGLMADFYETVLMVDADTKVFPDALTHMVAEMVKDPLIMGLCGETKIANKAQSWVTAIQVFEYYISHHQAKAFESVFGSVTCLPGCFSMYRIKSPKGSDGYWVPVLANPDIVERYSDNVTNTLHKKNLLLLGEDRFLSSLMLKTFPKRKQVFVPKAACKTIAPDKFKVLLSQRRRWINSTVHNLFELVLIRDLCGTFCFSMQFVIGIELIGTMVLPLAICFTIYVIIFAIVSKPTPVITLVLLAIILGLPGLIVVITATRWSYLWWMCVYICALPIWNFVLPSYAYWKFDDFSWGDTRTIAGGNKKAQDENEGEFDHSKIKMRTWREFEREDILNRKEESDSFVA
Method: as §2, §3

[3] = test system: budding yeast S. cerevisiae; test: Growth inhibition, broth microdilution MIC; format: cell-based
Method: The experiments were carried out using a broth microdilution protocol modified from the Clinical and Laboratory Standards Institute M-27A methods. WT S. cerevisiae and C. albicans were grown to mid-log phase in YPD medium. The cells were collected by centrifugation at 1500 g for 5 min and diluted with RPMI 1640 medium to the density of 1 × 10^4 CFU/mL. Then, the samples with various concentrations of compounds were dispensed at 0.2 mL/well in sterile 96-well microplates. The final concentrations of compounds ranged from 3.125 to 100 μg/mL with serial two-fold dilution. After incubation at 30 °C (S. cerevisiae) or 35 °C (C. albicans) for 24 hours, the minimal inhibitory concentration (MIC) was determined by measuring the optical density of the wells with cell cultures. The antifungal agent caspofungin was used as a positive control. All tests were performed in triplicate.

[4] = test system: Escherichia coli ATCC 25922; test: Growth inhibition of bacteria; format: cell-based; settings: Escherichia coli ATCC 25922, at 100 μg/mL

Row | Compound | MIC, chs3∆ ([1]; chs3∆ mutant, YPD, 30 °C, 24 hours, MIC90) | increase of the MIC of CFW (budding yeast; budding yeast, presence of 12.5 μg/mL IMB-D10) | MIC, fks1∆ ([2]; fks1∆ mutant, YPD, 30 °C, 24 hours, MIC90) | growth inhibition (Mycobacterium smegmatis) | IC50 Chs1 (Chs1) | IC50 Chs3 (Chs3; membrane protein from WT yeast) | MIC ([3]; budding yeast S. cerevisiae) | growth inhibition [4] | MIC ([1]; Saccharomyces cerevisiae, 24 h, read-out: MIC, chs3∆, chs3∆ mutant, YPD, 30 °C, 24 hours, MIC90) | resistance to CFW (budding yeast; yeast cells treated with 25 and 50 μg/mL IMB-F4) | MIC ([2]; Saccharomyces cerevisiae, 24 h, read-out: MIC, fks1∆) | inhibition of Chs1 activity (Chs1) | IC50 (Chs3) | cell growth inhibition ([3]; S. cerevisiae, at 100 μg/mL)
1 | N-(2-(diethylamino) ethyl)-N-(7-hydroxy-4-methoxybenzo[d]thiazol -2-yl)-2-oxo-2H-chromene-3-carboxamide [IMB-D10] | 100 µg/mL | eight-fold increase | 25 µg/mL | did not inhibit the growth | 17.46 ± 3.39 µg/mL | 13.08 ± 2.08 µg/mL | 50 µg/mL | did not inhibit the growth | – | – | – | – | – | –
2 | COc1cc(OC)cc(C(=O)N(CCn2ccnc2)c2nc3ccc(OC)cc3s2)c1 [IMB-F4, N-(2-(1H-imidazol-1-yl)ethyl)-3,5-dimethoxy-N-(6-methoxybenzo[d]thiazol-2-yl)benzamide] | – | – | – | did not inhibit the growth | – | – | – | did not inhibit the growth | > 100 µg/mL | increased resistance to CFW | 50 µg/mL | only inhibited the activity of Chs2 and Chs3 | 6.76 µM | did not inhibit cell growth
